Measured values published in patent US20240043408A1, “CRYSTAL FORM OF FIBROBLAST GROWTH FACTOR RECEPTOR INHIBITOR AND PREPARATION METHOD THEREFOR” (Transthera Sciences (Nanjing), Inc., priority 2020, published 2024).
Like-named read-outs stand apart in the source and are kept apart here.

Assays:
SNU-16 cells = test: Cell viability assay (Cell titer-Glo, 72 h); type: cell-based; settings: for IC50: SNU-16 gastric cancer cells with FGFR abnormalities, 72 h, Cell titer-Glo, read-out: Inhibitory activity (nM) on SNU-16 cells (IC50)
Experimental: SNU-16 is a gastric cancer cell with FGFR abnormalities.
Instrument: Espire multi-functional microplate reader
SNU-16 cells were seeded in a 96-well plate for adherent culture overnight, and then compounds at different concentrations (12 dose groups, serial 3-fold dilution with DMSO) were added to give final concentrations of 0.17-30000 nM, wherein the final DMSO content was 5%. Negative control wells contained a 5% DMSO medium. The plate was incubated at 37° C., 5% CO2 and 95% humidity for 72 h for later test. 30 μL of Cell titer-Glo reagent was added to each well, and after the plate was incubated at room temperature for 30 min, the final data were read by Espire.

[1] = Stability test of amorphous form and crystal form I at 105° C. and 60° C.; type: physicochemical
Experimental: The “destructive impurity” described herein refers to an additional peak in a liquid chromatogram of a sample in a stability test compared with the liquid chromatogram of the sample on day 0.
The bottles were let stand at 105° C. (samples were taken on days 3, 5 and 10) and at 60° C. (samples were taken on days 10, 20 and 30). The taken samples were investigated for changes in appearance, related substances and form.
Proper amounts of amorphous form samples of the compound (I) were placed into weighing bottles. The bottles were let stand at 105° C. (samples were taken on days 3, 5 and 10) and at 60° C. (samples were taken on days 10, 20 and 30). The taken samples were investigated for changes in appearance, related substances.

[2] = Stability test of crystal form I under influencing factors (60° C., RH 92.5%, RH 75%, illumination); type: physicochemical
Source text: Samples were taken on days 0, 4 and 10, and investigated for changes in properties and purity.

[3] = 60° C., Day 10, additional HPLC peaks vs day 0
[4] = Illumination (≥4500±500 Lux), Day 4
[5] = Illumination (≥4500±500 Lux), Day 10

C=CC(=O)N1C[C@@H](Nc2ncc3cc(-c4c(Cl)c(OC)cc(OC)c4Cl)ccc3n2)C[C@H]1CO [Crystal form I, 1-((2S,4S)-4-((6-(2,6-dichloro-3,5-dimethoxyphenyl)quinazolin-2-yl)amino)-2-(hydroxymethyl)pyrrolidin-1-yl)prop-2-en-1-one]
Inhibitory activity on SNU-16 cells (in words) (SNU-16 cells; SNU-16 cells with FGFR abnormalities): good inhibitory activity
IC50 (SNU-16 cells): 9.5 nM
Appearance ([1]; 60° C., Day 10): Off-white powder
Form (XRPD) ([1]; 60° C., Day 10): Crystal form I
Related substances (%) ([1]; 60° C., Day 10): 0.64%
Destructive impurity (%) [1, 3]: Undetectable
Appearance ([1]; 60° C., Day 20): Off-white powder
Form (XRPD) ([1]; 60° C., Day 20): Crystal form I
Related substances (%) ([1]; 60° C., Day 20): 0.64%
Destructive impurity (%) ([1]; 60° C., Day 20, additional HPLC peaks vs day 0): Undetectable
Appearance ([1]; 60° C., Day 30): Off-white powder
Form (XRPD) ([1]; 60° C., Day 30): Crystal form I
Related substances (%) ([1]; 60° C., Day 30): 0.68%
Destructive impurity (%) ([1]; 60° C., Day 30, additional HPLC peaks vs day 0): Undetectable
Appearance ([1]; 105° C., Day 3): Off-white powder
Form (XRPD) ([1]; 105° C., Day 3): Crystal form I
Related substances (%) ([1]; 105° C., Day 3): 0.62%
Destructive impurity (%) ([1]; 105° C., Day 3, additional HPLC peaks vs day 0): Undetectable
Appearance ([1]; 105° C., Day 5): Off-white powder
Form (XRPD) ([1]; 105° C., Day 5): Crystal form I
Related substances (%) ([1]; 105° C., Day 5): 0.60%
Destructive impurity (%) ([1]; 105° C., Day 5, additional HPLC peaks vs day 0): Undetectable
Appearance ([1]; 105° C., Day 10): Off-white powder
Form (XRPD) ([1]; 105° C., Day 10): Crystal form I
Related substances (%) ([1]; 105° C., Day 10): 0.63%
Destructive impurity (%) ([1]; 105° C., Day 10, additional HPLC peaks vs day 0): Undetectable
Appearance ([1]; Day 0): Off-white powder
Destructive impurity (%) ([1]; Day 0): None
Form (XRPD) ([1]; Day 0): Crystal form I
Related substances (%) ([1]; Day 0): 0.64%
Change of appearance, related substances and form ([1]; after storage at 105° C. for 10 days and at 60° C. for 30 days): did not change significantly
Appearance ([2]; 60° C., Day 4, open bottle): Off-white powder
Purity % ([2]; 60° C., Day 4, open bottle): 99.6%
Appearance ([2]; 60° C., Day 10, open bottle): Off-white powder
Purity % ([2]; 60° C., Day 10, open bottle): 99.6%
Appearance ([2]; 75% RH, Day 4, open bottle): Off-white powder
Purity % ([2]; 75% RH, Day 4, open bottle): 99.6%
Appearance ([2]; 75% RH, Day 10, open bottle): Off-white powder
Purity % ([2]; 75% RH, Day 10, open bottle): 99.6%
Appearance ([2]; 92.5% RH, Day 4, open bottle): Off-white powder
Purity % ([2]; 92.5% RH, Day 4, open bottle): 99.6%
Appearance ([2]; 92.5% RH, Day 10, open bottle): Off-white powder
Purity % ([2]; 92.5% RH, Day 10, open bottle): 99.6%
Appearance ([2]; Day 0): Off-white powder
Purity % ([2]; Day 0): 99.6%
Appearance [2, 4]: Off-white powder
Purity % [2, 4]: 99.6%
Appearance [2, 5]: Pale yellow powder
Purity % [2, 5]: 99.5%
Change of appearance and purity ([2]; after 10 days in various influencing factor conditions): did not change significantly

C=CC(=O)N1C[C@@H](Nc2ncc3cc(-c4c(Cl)c(OC)cc(OC)c4Cl)ccc3n2)C[C@H]1CO [Amorphous form, 1-((2S,4S)-4-((6-(2,6-dichloro-3,5-dimethoxyphenyl)quinazolin-2-yl)amino)-2-(hydroxymethyl)pyrrolidin-1-yl)prop-2-en-1-one]
IC50 (SNU-16 cells; Homo sapiens, SNU-16, 72 h): 11 nM
Appearance ([1]; 60° C., Day 10): Pale yellow powder
Related substances (%) ([1]; 60° C., Day 10): 0.73%
Destructive impurity (%) [1, 3]: 0.06%
Appearance ([1]; 60° C., Day 20): Pale yellow powder
Related substances (%) ([1]; 60° C., Day 20): 0.72%
Appearance ([1]; 60° C., Day 30): Pale yellow powder
Related substances (%) ([1]; 60° C., Day 30): 0.75%
Appearance ([1]; 105° C., Day 3): Pale yellow powder
Related substances (%) ([1]; 105° C., Day 3): 1.3%
Appearance ([1]; 105° C., Day 5): Pale yellow powder
Related substances (%) ([1]; 105° C., Day 5): 1.6%
Appearance ([1]; 105° C., Day 10): Pale yellow powder
Related substances (%) ([1]; 105° C., Day 10): 2.5%
Appearance ([1]; Day 0): Pale yellow powder
Destructive impurity (%) ([1]; Day 0): None
Related substances (%) ([1]; Day 0): 0.62%
Number of destructive impurities detected (HPLC) ([1]; stored at 60° C. for 30 days): 2
Number of destructive impurities detected (HPLC) ([1]; stored at 105° C. for 10 days): 7
